Patent US6348483B1, “Use of derivatives of methylene-bis-oxazolidine and compositions obtained thereby” (Air Liquide Sante (International), priority 1998, dated 2002)

Columns and labels:
Format in all cases: cell-based
Aspergillus niger (AN) [1] = assay: Fungicidal finish (SM 022) of pure acrylate house paint; conditions: without stress due to leaching
Aspergillus niger (AN) [2] = assay: as above; conditions: for Fungicidal finish, colonization rating AN: without stress due to 72 hours leaching (so in the source)
Description: (§1) In separate batches, the test concentrations of the active compounds/products were incorporated into the house paint, and the fungicidal and/or algistatic finish was determined using the stated test methods.
(§2) Incorporation and testing were carried out according to the methods SM 022 and SM 023 below.
(§3) This laboratory method was used to determine the resistance of house coatings to fungal attack. For the method, house coatings on standardized paper were used as test substrate, and Aspergillus niger (ATCC 6275) and Penicillium funiculosum (ATCC 36839) were used as test fungi. The experiments were carried out in Petri dishes on dextrose nutrient medium.
(§4) 50 g of the material to be finished were, in separate batches, mixed with various concentrations of the fungicide to be examined and homogenized for 3-5 min using a basket stirrer.
(§5) Paper carrier materials having the dimensions 90×270 mm (Schleicher & Schüll No. 2589 B/X 24078) were coated with the test material. The paint and/or render samples were coated to a wet-layer thickness of 250 μm by knife coating. […] In the case of renders, the layer thickness depended, as in practice, on the particle size. The coated carrier materials, hereinbelow referred to as test bodies, were subsequently dried in a horizontal position for five days.
The test bodies were watered in running tap water of 15±5° C. and a flow rate of 1 l/min for 72 hours and subsequently dried for two days. The cross section of the container for the watering in the direction of flow was 1000±500 cm^2.
(§6) From the pretreated test bodies, sample bodies having a diameter of 5 cm were punched out and sterilized in a Co^60 source using at least 10 kGy.
(§7) The Sabouraud dextrose agar, which had solidified in the Petri dish, was inoculated with 0.2 ml of spore suspension (10^7 spores/ml) and plated out using a sterile Drigalski spatula or an offset sterile glass rod.
(§8) The pretreated sample bodies were then evenly placed onto the inoculated surface of the nutrient medium using a pair of tweezers, making sure that the entire surface of the sample body was in contact with the surface of the nutrient medium. The sample was subsequently incubated at 30±2° C. for three weeks. For other test germs, the incubation temperature had to be adapted to achieve optimum growth.
(§9) After one, two and three weeks, the sample bodies were examined for fungal growth. Evaluation was carried out visually or—if this was required to exclude foreign infections—using a magnifying glass. If the extent of the colonization by foreign organisms observed considerably interfered with the evaluation, the experiment could not be evaluated and was repeated. The evaluation of the samples was based on the following evaluation scale:
(§10) 00—entire plate free from colonization*
(§11) 0—zone formation (no colonization around the sample)*
(§12) (0)—fungal colonization up to the sample*
(§13) 1—only the sample edge is colonized*
(§14) 2—the sample is colonized from the edge inwards (less than 25%)
(§15) 3—the sample surface is colonized by individual colonies (25-75%)
(§16) 4—the sample surface is colonized extensively (75% and more, but not the entire surface)
(§17) 5—the sample surface is colonized completely (100%)
(§18) *Note: Samples evaluated as 00, 0, (0) and 1 can be referred to as “being effectively finished against fungal growth”.

[3] = system: Mixed suspension of bacteria and fungi; assay: Boko test in water-diluted cutting fluids, mixed suspension
Description: (§19) In separate batches, in each case 100 ml of the water-diluted cutting fluid to be preserved were admixed with various concentrations of the preservatives to be examined. The growth control used was in each case an unpreserved sample. Two days after the incorporation of the preservatives, the test batches were infected for the first time using 1 ml of an inoculating solution. The inoculating solution used was a suspension of the germs listed below (cultivated on nutrient media and then adapted to water-diluted cutting fluids). […] [table] The test batches were subsequently inoculated two times a week and plated onto agar plates two times per week, the first smear being carried out immediately prior to the new inoculation. The microbial growth on the smears was assessed after incubation at 25° C. for three days. […] The preservative effect of the individual product concentrations was assessed in a semiquantitative method by the colonization of the individual smears using the classification from − to +to +++. Growth was differentiated according to bacteria, yeasts and moulds. The test was usually carried out for twelve inoculation cycles or interrupted after repeated +++growth. The cutting fluids Shell Dromus BX or Almasol EP from Castrol or Rondocor Kompakt from Consulta were examined as 4% strength by weight emulsions in tap water from the city of Norderstedt. Inoculation was carried out using a suspension of bacteria or fungi or a mixed suspension of bacteria and fungi.

Bacteria suspension = assay: Boko test in water-diluted cutting fluids, bacteria suspension
Description: as §19

[4] = system: Penicillium funiculosum (PF); assay: Fungicidal finish (SM 022) of pure acrylate house paint; conditions: for Fungicidal finish, colonization rating PF: without stress due to leaching
Description: as §1, §2, §3, §4, §5
[…] The cross section of the container for the watering in the direction of flow was 1000±500 cm^2.
as §6, §7, §8, §9, §10, §11, §12, §13, §14, §15, §16, §17, §18

Fungi suspension = assay: Boko test in water-diluted cutting fluids, fungi suspension
Description: as §19

[5] = Cutting fluid Almasol EP, use concentration 0.05% by weight
[6] = Cutting fluid Almasol EP, use concentration 0.10% by weight
[7] = Cutting fluid Almasol EP, use concentration 0.15% by weight
[8] = Cutting fluid Rondocor Kompakt, use concentration 0.05% by weight
[9] = Cutting fluid Rondocor Kompakt, use concentration 0.10% by weight
[10] = Cutting fluid Rondocor Kompakt, use concentration 0.15% by weight
[11] = Cutting fluid Shell Dromus BX, use concentration 0.05% by weight
[12] = Cutting fluid Shell Dromus BX, use concentration 0.10% by weight
[13] = Cutting fluid Shell Dromus BX, use concentration 0.15% by weight

In the case of `CC1CN(CN2COC(C)C2)CO1` (centres unmarked) [Mar 71, 3,3′-methylenebis-(5-methyloxazolidine)], the “Fungicidal finish, colonization rating AN” value (Aspergillus niger (AN) [1]; use conc. 0.5% W/W, 1. week) is reported as 5 (the sample surface is colonized completely (100%)), the “Fungicidal finish, colonization rating AN” value (Aspergillus niger (AN) [1]; use conc. 0.5% W/W, 2. week) is reported as 5 (the sample surface is colonized completely (100%)) and the “Fungicidal finish, colonization rating AN” value (Aspergillus niger (AN) [1]; use conc. 1.0% W/W, 1. week) is reported as 5 (the sample surface is colonized completely (100%)). The “Fungicidal finish, colonization rating AN” value (Aspergillus niger (AN) [1]; use conc. 1.0% W/W, 2. week) was 5 (the sample surface is colonized completely (100%)), the “Fungicidal finish, colonization rating AN” value (Aspergillus niger (AN) [1]; use conc. 2.0% W/W, 1. week) was 5 (the sample surface is colonized completely (100%)) and the “Fungicidal finish, colonization rating AN” value (Aspergillus niger (AN) [1]; use conc. 2.0% W/W, 2. week) was 5 (the sample surface is colonized completely (100%)). The “Fungicidal activity (in words), AN” value (Aspergillus niger (AN) [2]; house paint test) was “no fungicidal activity in practice”, the “Fungicidal finish, colonization rating AN” value (Aspergillus niger (AN) [2]; use conc. 0.5% W/W, 1. week) was 5 (the sample surface is colonized completely (100%)) and the “Fungicidal finish, colonization rating AN” value (Aspergillus niger (AN) [2]; use conc. 0.5% W/W, 2. week) was 5 (the sample surface is colonized completely (100%)). The “Fungicidal finish, colonization rating AN” value (Aspergillus niger (AN) [2]; use conc. 1.0% W/W, 1. week) was 5 (the sample surface is colonized completely (100%)), the “Fungicidal finish, colonization rating AN” value (Aspergillus niger (AN) [2]; use conc. 1.0% W/W, 2. week) was 5 (the sample surface is colonized completely (100%)) and the “Fungicidal finish, colonization rating AN” value (Aspergillus niger (AN) [2]; use conc. 2.0% W/W, 1. week) was 5 (the sample surface is colonized completely (100%)). For the same molecule, the “Fungicidal finish, colonization rating AN” value (Aspergillus niger (AN) [2]; use conc. 2.0% W/W, 2. week) was 5 (the sample surface is colonized completely (100%)), the “Number of inoculation cycles passed on inoculation with Mixed suspension” value (from here on “Number … with Mixed suspension”) [3, 5] was 11 and the “Number … with Mixed suspension” value [3, 6] was greater than 12. The “Number … with Mixed suspension” value [3, 7] was 11, the “Number … with Mixed suspension” value [3, 8] was greater than 12 and the “Number … with Mixed suspension” value [3, 9] was greater than 12. For the same molecule, the “Number … with Mixed suspension” value [3, 10] was greater than 12, the “Number … with Mixed suspension” value [3, 11] was 4 and the “Number … with Mixed suspension” value [3, 12] was 11. The “Number … with Mixed suspension” value [3, 13] was greater than 12, the “Number of inoculation cycles passed on inoculation with Bacteria suspension” value (“Number … with Bacteria suspension” for short) (Bacteria suspension; [5]) was greater than 12 and the “Number … with Bacteria suspension” value (Bacteria suspension; [6]) was greater than 12. For the same molecule, the “Number … with Bacteria suspension” value (Bacteria suspension; [7]) was greater than 12, the “Number … with Bacteria suspension” value (Bacteria suspension; [8]) was greater than 12 and the “Number … with Bacteria suspension” value (Bacteria suspension; [9]) was greater than 12. The “Number … with Bacteria suspension” value (Bacteria suspension; [10]) was greater than 12, the “Number … with Bacteria suspension” value (Bacteria suspension; [11]) was greater than 12 and the “Number … with Bacteria suspension” value (Bacteria suspension; [12]) was greater than 12. For the same molecule, the “Number … with Bacteria suspension” value (Bacteria suspension; [13]) was greater than 12, the “Fungicidal activity (in words), PF” value ([4]; house paint test) was “no fungicidal activity in practice” and the “Fungicidal finish, colonization rating PF” value ([4]; use conc. 0.5% W/W, 1. week) was 5 (the sample surface is colonized completely (100%)). The “Fungicidal finish, colonization rating PF” value ([4]; use conc. 0.5% W/W, 2. week) was 5 (the sample surface is colonized completely (100%)), the “Fungicidal finish, colonization rating PF” value ([4]; use conc. 1.0% W/W, 1. week) was 5 (the sample surface is colonized completely (100%)) and the “Fungicidal finish, colonization rating PF” value ([4]; use conc. 1.0% W/W, 2. week) was 5 (the sample surface is colonized completely (100%)). The “Fungicidal finish, colonization rating PF” value ([4]; use conc. 2.0% W/W, 1. week) was 3 (the sample surface is colonized by individual colonies (25%-75%)), the “Fungicidal finish, colonization rating PF” value ([4]; use conc. 2.0% W/W, 2. week) was 4 (the sample surface is colonized extensively (75% and more, but not the entire surface)) and the “Number of inoculation cycles passed on inoculation with Fungi suspension” value (“Number … with Fungi suspension” below) (Fungi suspension; [5]) was greater than 12. The “Number … with Fungi suspension” value (Fungi suspension; [6]) was greater than 12, the “Number … with Fungi suspension” value (Fungi suspension; [7]) was greater than 12 and the “Number … with Fungi suspension” value (Fungi suspension; [8]) was greater than 12. The “Number … with Fungi suspension” value (Fungi suspension; [9]) was greater than 12, the “Number … with Fungi suspension” value (Fungi suspension; [10]) was greater than 12 and the “Number … with Fungi suspension” value (Fungi suspension; [11]) was greater than 12. The “Number … with Fungi suspension” value (Fungi suspension; [12]) was greater than 12 and the “Number … with Fungi suspension” value (Fungi suspension; [13]) was greater than 12.
